According to paper PMC8632988, “Inhibition of SYK and cSrc kinases can protect bone and cartilage in preclinical models of osteoarthritis and rheumatoid arthritis” (Scientific Reports, 2021):
Several values for one entry are separate records, joined by “and”; a condition that tells them apart may be missing. Identical values can stand only once.

What was measured:
DYRK4 = molecular target: T1, DYRK4 (Homo sapiens, UniProt Q9NR20); experiment: Kinase selectivity profile assay; type: biochemical; conditions: 500 nM; relative to DMSO; read-out: Residual enzymatic activity
T1 construct: purchased Reaction Biology Corporation
Protocol: The activity of MT-SYK-03 against cSrc kinase and selectivity profile towards other 341 kinases was determined at Reaction Biology Corporation (Malvern, PA, USA) using the standard kinase assay protocol. […] Kinase activity data was expressed as the percent remaining kinase activity in test samples compared to vehicle (dimethyl sulfoxide) reactions based on the radioactivity of reaction products (see Table S2). Experiment was replicated twice.

mongrel rats, AIA model = experiment: Adjuvant-induced arthritis in rats; type: in vivo
Protocol: Rat adjuvant-induced arthritis (AIA) model was performed at Pharmenterprises, Russia as described previously^3 and approved by Ethics Committee of Pharmenterprises. Male 10 week old mongrel rats were divided into eleven groups: negative control (#1), positive control (#2) and nine treatment groups (#3–11), ten […] in each group. Group #1 was left intact, while subplantar injection of 0.1 mL of Complete Freund’s adjuvant (CFA, Sigma) was made on day 0 at right paws of rats in groups […]. […] Disease progression was monitored by measuring volumes of the right (involved) and left (non-involved) paws on days 0, 14, 18, 21, 25, and 28.

c-Src = molecular target: T2, c-Src (Homo sapiens, UniProt P12931); experiment: cSrc inhibition and kinase selectivity profile assay; type: biochemical
T2 construct: purchased Reaction Biology Corporation (assay service)
Protocol: The activity of MT-SYK-03 against cSrc kinase and selectivity profile towards other 341 kinases was determined at Reaction Biology Corporation (Malvern, PA, USA) using the standard kinase assay protocol. […]; unbound phosphate was removed by extensive washing of filters in phosphoric acid. Kinase activity data was expressed as the percent remaining kinase activity in test samples compared to vehicle (dimethyl sulfoxide) reactions based on the radioactivity of reaction products (see Table S2). Experiment was replicated twice.

Lewis rats, CIA model = experiment: Collagen-induced semi-established arthritis model in rats; type: in vivo, rat; conditions: ankle, day 16, MT-SYK-03 103 mg/kg PO BID + MTX Veh PO QD
Protocol: Rat CIA model was performed was performed at Pharmenterprises, Russia and approved by Ethics Committee of Pharmenterprises. Female Lewis rats with body weight of 164–183 g (Charles River Laboratories, Inc., Wilmington, MA) were injected with porcine type II collagen (Chondrex) emulsified with Freund’s Incomplete Adjuvant (Sigma Aldrich) at two sites at the base of the tail according to standard protocol. On day 7, the rats were boosted with a second subcutaneous injection. On day 6 of the study, rats were randomized by body weight into six groups: a control group of four, and five treatment groups of eight. […] Disease progression was monitored via daily ankle thickness measurements. At study termination on day 16 rats were anesthetized with Isoflurane, bled by vacutainer through the descending aorta to exsanguinate and then euthanized for tissue collection. Hind paws were transected at the level of the medial and lateral malleolus, weighed, and collected for microscopy.
[…]

[1] = individual joint (animal, R/L), 103 mg/kg

T2 sequence (P12931 whole entry): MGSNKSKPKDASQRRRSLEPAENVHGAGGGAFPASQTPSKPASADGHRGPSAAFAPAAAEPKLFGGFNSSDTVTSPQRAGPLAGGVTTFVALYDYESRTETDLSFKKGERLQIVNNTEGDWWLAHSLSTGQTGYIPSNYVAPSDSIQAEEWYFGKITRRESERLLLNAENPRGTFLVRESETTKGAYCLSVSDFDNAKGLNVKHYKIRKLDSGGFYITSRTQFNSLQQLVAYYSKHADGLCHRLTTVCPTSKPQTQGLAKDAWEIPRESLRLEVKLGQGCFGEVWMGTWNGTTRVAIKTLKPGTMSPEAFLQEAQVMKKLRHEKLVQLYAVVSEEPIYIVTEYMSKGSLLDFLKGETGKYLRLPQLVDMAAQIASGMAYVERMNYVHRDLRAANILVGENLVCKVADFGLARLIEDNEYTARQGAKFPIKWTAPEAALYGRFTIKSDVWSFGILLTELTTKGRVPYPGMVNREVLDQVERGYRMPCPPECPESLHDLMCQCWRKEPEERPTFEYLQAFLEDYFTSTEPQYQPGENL
T1 sequence (Q9NR20 whole entry): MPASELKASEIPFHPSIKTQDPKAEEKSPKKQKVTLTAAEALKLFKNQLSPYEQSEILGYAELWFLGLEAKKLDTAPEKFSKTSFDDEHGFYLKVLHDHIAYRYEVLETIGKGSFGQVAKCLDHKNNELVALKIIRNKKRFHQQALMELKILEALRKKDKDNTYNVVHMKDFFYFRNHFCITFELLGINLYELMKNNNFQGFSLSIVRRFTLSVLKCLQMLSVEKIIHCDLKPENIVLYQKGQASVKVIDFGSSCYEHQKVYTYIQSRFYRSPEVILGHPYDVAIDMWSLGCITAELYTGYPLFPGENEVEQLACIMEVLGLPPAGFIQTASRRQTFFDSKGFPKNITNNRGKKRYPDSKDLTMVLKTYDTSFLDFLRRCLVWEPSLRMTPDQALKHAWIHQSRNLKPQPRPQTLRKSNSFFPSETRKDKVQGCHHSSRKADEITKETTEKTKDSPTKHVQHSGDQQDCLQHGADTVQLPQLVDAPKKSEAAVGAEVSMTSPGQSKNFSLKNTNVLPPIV

Compound `COc1cc(Nc2ncnc(Nc3cc4c(cn3)NC(=O)C(C)(C)O4)n2)cc(OC)c1OC` [MT-SYK-03] has a remaining activity at 0.5 µM (DYRK4) of 104%, an Animal death (mongrel rats, AIA model; MT-SYK-03 52 mg/kg BID intragastric, 14 days) of 0% and an Animal death (mongrel rats, AIA model; MT-SYK-03 52 mg/kg BID intragastric, 18 days) of 0%. It also gave an Animal death (mongrel rats, AIA model; MT-SYK-03 52 mg/kg BID intragastric, 21 days) of 0%, an Animal death (mongrel rats, AIA model; MT-SYK-03 52 mg/kg BID intragastric, 25 days) of 0% and an Animal death (mongrel rats, AIA model; MT-SYK-03 52 mg/kg BID intragastric, 28 days) of 0%. It also gave an Animal death (mongrel rats, AIA model; MT-SYK-03 103 mg/kg BID intragastric, 14 days) of 0%, an Animal death (mongrel rats, AIA model; MT-SYK-03 103 mg/kg BID intragastric, 18 days) of 0% and an Animal death (mongrel rats, AIA model; MT-SYK-03 103 mg/kg BID intragastric, 21 days) of 0%. The Animal death (mongrel rats, AIA model; MT-SYK-03 103 mg/kg BID intragastric, 25 days) was 0%, the Animal death (mongrel rats, AIA model; MT-SYK-03 103 mg/kg BID intragastric, 28 days) was 0% and the Animal death (mongrel rats, AIA model; MT-SYK-03 207 mg/kg QD intragastric, 14 days) was 0%. For the same compound, the Animal death (mongrel rats, AIA model; MT-SYK-03 207 mg/kg QD intragastric, 18 days) was 0%, the Animal death (mongrel rats, AIA model; MT-SYK-03 207 mg/kg QD intragastric, 21 days) was 0% and the Animal death (mongrel rats, AIA model; MT-SYK-03 207 mg/kg QD intragastric, 25 days) was 0%. For the same compound, the Animal death (mongrel rats, AIA model; MT-SYK-03 207 mg/kg QD intragastric, 28 days) was 0%, the “The increase in the volume of the paws relative to the initial level” value (mongrel rats, AIA model; non-involved paws, MT-SYK-03 52 mg/kg BID intragastric, 18 days) was 22.55±2.93& % and the “The increase in the volume of the paws relative to the initial level” value (mongrel rats, AIA model; non-involved paws, MT-SYK-03 52 mg/kg BID intragastric, 21 days) was 23.66±3.25& %. The “The increase in the volume of the paws relative to the initial level” value (mongrel rats, AIA model; non-involved paws, MT-SYK-03 52 mg/kg BID intragastric, 25 days) was 24.39±2.8& %, the “The increase in the volume of the paws relative to the initial level” value (mongrel rats, AIA model; non-involved paws, MT-SYK-03 52 mg/kg BID intragastric, 28 days) was 25.25±2.86& % and the “The increase in the volume of the paws relative to the initial level” value (mongrel rats, AIA model; non-involved paws, MT-SYK-03 103 mg/kg BID intragastric, 14 days) was 11.22±1.26& %. For the same compound, the “The increase in the volume of the paws relative to the initial level” value (mongrel rats, AIA model; non-involved paws, MT-SYK-03 103 mg/kg BID intragastric, 18 days) was 17.42±1.16& %, the “The increase in the volume of the paws relative to the initial level” value (mongrel rats, AIA model; non-involved paws, MT-SYK-03 103 mg/kg BID intragastric, 21 days) was 20.38±2.11& % and the “The increase in the volume of the paws relative to the initial level” value (mongrel rats, AIA model; non-involved paws, MT-SYK-03 103 mg/kg BID intragastric, 25 days) was 22.35±2.28& %. For the same compound, the “The increase in the volume of the paws relative to the initial level” value (mongrel rats, AIA model; non-involved paws, MT-SYK-03 103 mg/kg BID intragastric, 28 days) was 21.41±2.05&# %, the “The increase in the volume of the paws relative to the initial level” value (mongrel rats, AIA model; non-involved paws, MT-SYK-03 207 mg/kg QD intragastric, 14 days) was 14.3±1.82& % and the “The increase in the volume of the paws relative to the initial level” value (mongrel rats, AIA model; non-involved paws, MT-SYK-03 207 mg/kg QD intragastric, 18 days) was 19.97±1.89& %. The “The increase in the volume of the paws relative to the initial level” value (mongrel rats, AIA model; non-involved paws, MT-SYK-03 207 mg/kg QD intragastric, 21 days) was 21.15±1.89& %, the “The increase in the volume of the paws relative to the initial level” value (mongrel rats, AIA model; non-involved paws, MT-SYK-03 207 mg/kg QD intragastric, 25 days) was 22.51±1.61& % and the “The increase in the volume of the paws relative to the initial level” value (mongrel rats, AIA model; non-involved paws, MT-SYK-03 207 mg/kg QD intragastric, 28 days) was 21.94±1.37&# %. The “The increase in the volume of the paws relative to the initial level” value (mongrel rats, AIA model; po, 52 mg/kg, 336 h) was 13.93±1.83& %, the Rats died (mongrel rats, AIA model; rat AIA, MT-SYK-03) was 0% and the “Volume of non-involved paws” value (mongrel rats, AIA model; rat AIA, MT-SYK-03 103 and 207 mg/kg, day 28) was “decreased the volume of non-involved paws”. The “The increase in the volume of the paws relative to the initial level” value (mongrel rats, AIA model; treated paws, MT-SYK-03 52 mg/kg BID intragastric, 14 days) was 77.6 ± 4.53 & %, the “The increase in the volume of the paws relative to the initial level” value (mongrel rats, AIA model; treated paws, MT-SYK-03 52 mg/kg BID intragastric, 18 days) was 85.72 ± 3.7 & % and the “The increase in the volume of the paws relative to the initial level” value (mongrel rats, AIA model; treated paws, MT-SYK-03 52 mg/kg BID intragastric, 21 days) was 88.24 ± 4.4 & %. For the same compound, the “The increase in the volume of the paws relative to the initial level” value (mongrel rats, AIA model; treated paws, MT-SYK-03 52 mg/kg BID intragastric, 25 days) was 94.75 ± 7.18 & %, the “The increase in the volume of the paws relative to the initial level” value (mongrel rats, AIA model; treated paws, MT-SYK-03 52 mg/kg BID intragastric, 28 days) was 93.88 ± 6.77 & % and the “The increase in the volume of the paws relative to the initial level” value (mongrel rats, AIA model; treated paws, MT-SYK-03 103 mg/kg BID intragastric, 14 days) was 76.18 ± 7.73 & %. The “The increase in the volume of the paws relative to the initial level” value (mongrel rats, AIA model; treated paws, MT-SYK-03 103 mg/kg BID intragastric, 18 days) was 85.98 ± 7.51 & %, the “The increase in the volume of the paws relative to the initial level” value (mongrel rats, AIA model; treated paws, MT-SYK-03 103 mg/kg BID intragastric, 21 days) was 86.55 ± 8.13 & % and the “The increase in the volume of the paws relative to the initial level” value (mongrel rats, AIA model; treated paws, MT-SYK-03 103 mg/kg BID intragastric, 25 days) was 86.47 ± 7.89 & %. For the same compound, the “The increase in the volume of the paws relative to the initial level” value (mongrel rats, AIA model; treated paws, MT-SYK-03 103 mg/kg BID intragastric, 28 days) was 89.02 ± 7.37 & %, the “The increase in the volume of the paws relative to the initial level” value (mongrel rats, AIA model; treated paws, MT-SYK-03 207 mg/kg QD intragastric, 14 days) was 81.54 ± 6.88 & % and the “The increase in the volume of the paws relative to the initial level” value (mongrel rats, AIA model; treated paws, MT-SYK-03 207 mg/kg QD intragastric, 18 days) was 82.92 ± 6.64 & %. The “The increase in the volume of the paws relative to the initial level” value (mongrel rats, AIA model; treated paws, MT-SYK-03 207 mg/kg QD intragastric, 21 days) was 83.22 ± 6.53 & %, the “The increase in the volume of the paws relative to the initial level” value (mongrel rats, AIA model; treated paws, MT-SYK-03 207 mg/kg QD intragastric, 25 days) was 88.58 ± 7.8 & % and the “The increase in the volume of the paws relative to the initial level” value (mongrel rats, AIA model; treated paws, MT-SYK-03 207 mg/kg QD intragastric, 28 days) was 93.67 ± 9.08 & %. The IC50 (c-Src) was 14.2 nM and 23 to 40 nM and 14 nM, the remaining activity at 0.5 µM (c-Src; 500 nM, relative to DMSO, read-out: Residual enzymatic activity) was 6.2% and the “Bone Resorption score, Mean” value (Lewis rats, CIA model; group mean) was 1.50. For the same compound, the “Cartilage Damage score, Mean” value (Lewis rats, CIA model; group mean) was 2.09, the “Inflammation score, Mean” value (Lewis rats, CIA model; group mean) was 4.44 and the “Pannus score, Mean” value (Lewis rats, CIA model; group mean) was 1.50. For the same compound, the “Periosteal Bone Formation score, Mean” value (Lewis rats, CIA model; group mean) was 1.19, the “Periosteal Naïve Bone Width Actual, Mean” value (Lewis rats, CIA model; group mean) was 200.81 μm and the “Summed Histopathology Scores, Mean” value (Lewis rats, CIA model; group mean) was 10.72. The “Bone Resorption score (0=normal to 5=severe)” value (Lewis rats, CIA model; [1]) was 2 and 0.5 and 1, the “Cartilage Damage score (0=normal to 5=severe)” value (Lewis rats, CIA model; [1]) was 3 and 0.5 and 2 and 1 and the “Inflammation score (0=normal to 5=severe)” value (Lewis rats, CIA model; [1]) was 5 and 2 and 4 and 3. For the same compound, the “Pannus score (0=normal to 5=severe)” value (Lewis rats, CIA model; [1]) was 2 and 0.5 and 1, the “Periosteal Bone Formation score (0=normal to 5=severe)” value (Lewis rats, CIA model; [1]) was 2 and 0 and 1 and 0.5 and the “Periosteal Naïve Bone Width 16x Measure” value (Lewis rats, CIA model; [1]) was 5 and 0 and 3 and 2 and 1 and 4. For the same compound, the “Periosteal Naïve Bone Width Actual” value (Lewis rats, CIA model; [1]) was 315 μm and 0 μm and 189 μm and 126 μm and 63 μm and 252 μm, the “Summed Histopathology Scores” value (Lewis rats, CIA model; [1]) was 14 and 3.5 and 12 and 13 and 10 and 6.5 and 7.5 and 8.5 and the “Bone Resorption score, % inhibition” value (Lewis rats, CIA model; vs vehicle) was −2%. For the same compound, the “Cartilage Damage score, % inhibition” value (Lewis rats, CIA model; vs vehicle) was 13%.
